Experimental data: ChEMBL document CHEMBL3046147, “Synthesis and Herbicidal Activity of 1-Arylalkyl-3-pyrrolin-2-one Derivatives” (J Pestic Sci, 2000)
Calls of active or inactive are those of the source. The calls are words filed in the database; no cut-off is given here.

Legend:
[1] = system: Schoenoplectiella juncoides; assay: Herbicide activity against Schoenoplectiella juncoides under greenhouse condition compound treated at emergence-stage measured after 14 to 20 days; type: functional
Lindernia procumbens = assay: Herbicidal activity against Lindernia procumbens at 500 g /ha treated at 1 to 2-pairs of leaf stage measured after 26 days by outdoor concrete pot test; type: functional, organism-based
Sagittaria pygmaea [2] = assay: Herbicidal activity against Sagittaria pygmaea at 1000 g /ha treated at 0.5 to 1-leaf stage measured after 26 days by outdoor concrete pot test; type: functional, organism-based
Echinochloa oryzicola [3] = assay: Herbicidal activity against Echinochloa oryzicola grown in water-drained pot under greenhouse condition assessed as time duration of residual effect at 125 g /ha; type: functional
Echinochloa oryzicola [4] = assay: Herbicidal activity against Echinochloa oryzicola under greenhouse condition assessed as growth inhibition at 1000 g /ha measured after 20 days; type: functional, organism-based
Echinochloa oryzicola [5] = assay: Herbicide activity against Echinochloa oryzicola under greenhouse condition compound treated at 2 leaf-stage measured after 14 to 20 days; type: functional
Sagittaria pygmaea [6] = assay: Herbicidal activity against Sagittaria pygmaea at 500 g /ha treated at 0.5 to 1-leaf stage measured after 26 days by outdoor concrete pot test; type: functional, organism-based
Pontederia vaginalis [7] = assay: Herbicidal activity against Monochoria vaginalis at 250 g /ha treated at 1.5 to 2-leaf stage measured after 26 days by outdoor concrete pot test; type: functional, organism-based
Oryza sativa = assay: Phytotoxicity against two-leaf stage Oryza sativa cv. Nihonbare (rice) planted 3 cm depth measured after […]; type: organism-based; conditions: in vivo
Pontederia vaginalis [8] = assay: Herbicidal activity against Monochoria vaginalis at 500 g /ha treated at 1.5 to 2-leaf stage measured after 26 days by outdoor concrete pot test; type: functional, organism-based
Echinochloa oryzicola [9] = assay: Herbicidal activity against Echinochloa oryzicola under greenhouse condition assessed as growth inhibition at 250 g /ha measured after 42 days; type: functional, organism-based
Echinochloa oryzicola [10] = assay: Herbicidal activity against Echinochloa oryzicola under greenhouse condition assessed as growth inhibition at 1000 g /ha measured after 33 days; type: functional, organism-based
[11] = system: Schoenoplectiella juncoides; assay: Herbicidal activity against Schoenoplectiella juncoides at 250 g /ha treated at 1.5 to 2.1-leaf stage measured after 26 days by outdoor concrete pot test; type: functional, organism-based
Echinochloa oryzicola [12] = assay: Herbicidal activity against Echinochloa oryzicola grown in water-drained pot under greenhouse condition assessed as growth inhibition at 500 g /ha measured after 27 days; type: functional, organism-based
Echinochloa oryzicola [13] = assay: Herbicidal activity against Echinochloa oryzicola grown in water-drained pot under greenhouse condition assessed as growth inhibition at 125 g /ha measured after 33 days; type: functional, organism-based
Echinochloa oryzicola [14] = assay: Herbicidal activity against Echinochloa oryzicola under greenhouse condition assessed as growth inhibition at 250 g /ha measured after 13 days; type: functional, organism-based
Echinochloa oryzicola [15] = assay: Herbicidal activity against Echinochloa oryzicola under greenhouse condition assessed as growth inhibition at 500 g /ha measured after 6 days; type: functional, organism-based
Echinochloa oryzicola [16] = assay: Herbicidal activity against Echinochloa oryzicola under greenhouse condition assessed as growth inhibition at 500 g /ha measured after 42 days; type: functional, organism-based
Echinochloa oryzicola [17] = assay: Herbicidal activity against Echinochloa oryzicola grown in water-drained pot under greenhouse condition assessed as growth inhibition at 125 g /ha measured after 42 days; type: functional, organism-based
Echinochloa oryzicola [18] = assay: Herbicidal activity against Echinochloa oryzicola under greenhouse condition assessed as time duration of residual effect at 500 g /ha; type: functional
Echinochloa oryzicola [19] = assay: Herbicidal activity against Echinochloa oryzicola grown in water-drained pot under greenhouse condition assessed as growth inhibition at 125 g /ha measured after 27 days; type: functional, organism-based
Echinochloa oryzicola [20] = assay: Herbicidal activity against Echinochloa oryzicola under greenhouse condition assessed as growth inhibition at 1000 g /ha measured after 6 days; type: functional, organism-based
Pontederia vaginalis [21] = assay: Herbicidal activity against Monochoria vaginalis at 1000 g /ha treated at 1.5 to 2-leaf stage measured after 26 days by outdoor concrete pot test; type: functional, organism-based
Echinochloa oryzicola [22] = assay: Herbicidal activity against Echinochloa oryzicola at 250 g /ha treated at 1.5 to 2-leaf stage measured after 26 days by outdoor concrete pot test; type: functional, organism-based
Rotala indica = assay: Herbicidal activity against Rotala indica at 1000 g /ha treated at 1 to 2-pairs of leaf stage measured after 26 days by outdoor concrete pot test; type: functional, organism-based
[23] = system: Schoenoplectiella juncoides; assay: Herbicidal activity against Schoenoplectiella juncoides at 500 g /ha treated at 1.5 to 2.1-leaf stage measured after 26 days by outdoor concrete pot test; type: functional, organism-based
Echinochloa oryzicola [24] = assay: Herbicidal activity against Echinochloa oryzicola grown in water-drained pot under greenhouse condition assessed as growth inhibition at 500 g /ha measured after 6 days; type: functional, organism-based
Echinochloa oryzicola [25] = assay: Herbicidal activity against Echinochloa oryzicola under greenhouse condition assessed as growth inhibition at 500 g /ha measured after 33 days; type: functional, organism-based
Cyperus serotinus [26] = assay: Herbicidal activity against Cyperus serotinus at 250 g /ha treated at 1 to 1.5-leaf stage measured after 26 days by outdoor concrete pot test; type: functional, organism-based
Echinochloa oryzicola [27] = assay: Herbicidal activity against Echinochloa oryzicola grown in water-drained pot under greenhouse condition assessed as growth inhibition at 500 g /ha measured after 42 days; type: functional, organism-based
Echinochloa oryzicola [28] = assay: Herbicidal activity against Echinochloa oryzicola under greenhouse condition assessed as time duration of residual effect at 125 g /ha; type: functional
Echinochloa oryzicola [29] = assay: Herbicidal activity against Echinochloa oryzicola grown in water-drained pot under greenhouse condition assessed as growth inhibition at 125 g /ha measured after 13 days; type: functional, organism-based
Echinochloa oryzicola [30] = assay: Herbicidal activity against Echinochloa oryzicola under greenhouse condition assessed as growth inhibition at 250 g /ha measured after 6 days; type: functional, organism-based
Echinochloa oryzicola [31] = assay: Herbicidal activity against Echinochloa oryzicola grown in water-drained pot under greenhouse condition assessed as growth inhibition at 125 g /ha measured after 20 days; type: functional, organism-based
Cyperus serotinus [32] = assay: Herbicidal activity against Cyperus serotinus at 1000 g /ha treated at 1 to 1.5-leaf stage measured after 26 days by outdoor concrete pot test; type: functional, organism-based
Elatine triandra = assay: Herbicidal activity against Elatine triandra at 250 g /ha treated at 1 to 2-pairs of leaf stage measured after 26 days by outdoor concrete pot test; type: functional, organism-based
Echinochloa oryzicola [33] = assay: Herbicidal activity against Echinochloa oryzicola grown in water-drained pot under greenhouse condition assessed as growth inhibition at 500 g /ha measured after 20 days; type: functional, organism-based
Echinochloa oryzicola [34] = assay: Herbicidal activity against Echinochloa oryzicola under greenhouse condition assessed as growth inhibition at 500 g /ha measured after 20 days; type: functional, organism-based
Echinochloa oryzicola [35] = assay: Herbicidal activity against Echinochloa oryzicola under greenhouse condition assessed as growth inhibition at 500 g /ha measured after 13 days; type: functional, organism-based
Echinochloa oryzicola [36] = assay: Herbicidal activity against Echinochloa oryzicola under greenhouse condition assessed as growth inhibition at 500 g /ha measured after 27 days; type: functional, organism-based
Echinochloa oryzicola [37] = assay: Herbicidal activity against Echinochloa oryzicola under greenhouse condition assessed as growth inhibition at 1000 g /ha measured after 42 days; type: functional, organism-based
Echinochloa oryzicola [38] = assay: Herbicidal activity against Echinochloa oryzicola under greenhouse condition assessed as growth inhibition at 1000 g /ha measured after 27 days; type: functional, organism-based
Sagittaria pygmaea [39] = assay: Herbicidal activity against Sagittaria pygmaea at 250 g /ha treated at 0.5 to 1-leaf stage measured after 26 days by outdoor concrete pot test; type: functional, organism-based
[40] = system: Schoenoplectiella juncoides; assay: Herbicidal activity against Schoenoplectiella juncoides at 1000 g /ha treated at 1.5 to 2.1-leaf stage measured after 26 days by outdoor concrete pot test; type: functional, organism-based
Echinochloa oryzicola [41] = assay: Herbicidal activity against Echinochloa oryzicola grown in water-drained pot under greenhouse condition assessed as growth inhibition at 500 g /ha measured after 13 days; type: functional, organism-based

SMILES: CC1=C(c2ccccc2)C(=O)N(C(C)(C)c2nc3ccccc3s2)C1
- MED [1]: 20 g/acre
- growth inhibition (GI) (Lindernia procumbens): Active
- growth inhibition (GI) (Sagittaria pygmaea [2]): Active
- Time (Echinochloa oryzicola [3]): 27 days
- growth inhibition (GI) (Echinochloa oryzicola [4]): Active
- MED (Echinochloa oryzicola [5]): 1.25 g/acre
- growth inhibition (GI) (Sagittaria pygmaea [6]): Active
- growth inhibition (GI) (Pontederia vaginalis [7]): inactive
- MTD (Oryza sativa): 10 g/acre
- growth inhibition (GI) (Pontederia vaginalis [8]): Active
- growth inhibition (GI) (Echinochloa oryzicola [9]): inactive
- growth inhibition (GI) (Echinochloa oryzicola [10]): Active
- growth inhibition (GI) [11]: inactive
- growth inhibition (GI) (Echinochloa oryzicola [12]): Active
- growth inhibition (GI) (Echinochloa oryzicola [13]): inactive
- growth inhibition (GI) (Echinochloa oryzicola [14]): Active
- growth inhibition (GI) (Echinochloa oryzicola [15]): Active
- growth inhibition (GI) (Echinochloa oryzicola [16]): Active
- growth inhibition (GI) (Echinochloa oryzicola [17]): inactive
- Time (Echinochloa oryzicola [18]): >42 days
- growth inhibition (GI) (Echinochloa oryzicola [19]): inactive
- growth inhibition (GI) (Echinochloa oryzicola [20]): Active
- growth inhibition (GI) (Pontederia vaginalis [21]): Active
- growth inhibition (GI) (Echinochloa oryzicola [22]): Active
- growth inhibition (GI) (Rotala indica): Active
- growth inhibition (GI) [23]: inactive
- growth inhibition (GI) (Echinochloa oryzicola [24]): Active
- growth inhibition (GI) (Echinochloa oryzicola [25]): Active
- growth inhibition (GI) (Cyperus serotinus [26]): Active
- growth inhibition (GI) (Echinochloa oryzicola [27]): inactive
- Time (Echinochloa oryzicola [28]): 30 days
- growth inhibition (GI) (Echinochloa oryzicola [29]): Active
- growth inhibition (GI) (Echinochloa oryzicola [30]): Active
- growth inhibition (GI) (Echinochloa oryzicola [31]): inactive
- growth inhibition (GI) (Cyperus serotinus [32]): Active
- growth inhibition (GI) (Elatine triandra): Active
- growth inhibition (GI) (Echinochloa oryzicola [33]): Active
- growth inhibition (GI) (Echinochloa oryzicola [34]): Active
- growth inhibition (GI) (Echinochloa oryzicola [35]): Active
- growth inhibition (GI) (Echinochloa oryzicola [36]): Active
- growth inhibition (GI) (Echinochloa oryzicola [37]): Active
- growth inhibition (GI) (Echinochloa oryzicola [38]): Active
- growth inhibition (GI) (Sagittaria pygmaea [39]): inactive
- growth inhibition (GI) [40]: inactive
- growth inhibition (GI) (Echinochloa oryzicola [41]): Active
